The assay has as its system hPSCs (H9 hESCs, IMR90C4 and CS03n2 iPSCs). The assay can be described thus: Differentiation of hPSCs to NCSCs (p75-NGFR/HNK1 immunocytochemistry, flow cytometry). In kind it is cell-based, human. To be noted: CHIR99021 increased to 2 μM in E6-CSF, 15 days. On the technique in general: In flow cytometry, cells or beads pass a laser one at a time.

Description: We first assessed the capability of E6, a reduced factor medium, to support differentiation of H9 human embryonic stem cells (hESCs) and IMR90C4 and CS03n2 induced pluripotent stem cells (iPSCs) to NCSCs. H9 hESCs were cultured for 15 days in E6 medium supplemented with heparin and pathway modulators previously implicated in hPSC differentiation to NCSCs (48): 1 μM CHIR99021, a GSK3β inhibitor to promote WNT signaling; 10 μM SB431543, an ALK5 antagonist to inhibit Activin/Nodal/TGFβ signaling; and 10 ng/mL FGF2 (E6-CSF).
To examine the effects of BMP inhibition on hPSC differentiation to NCSCs in minimal medium, E6-CSF medium was supplemented with 1 μM dorsomorphin, a BMP type I receptor inhibitor, to generate E6-CSFD.
One day prior to initiating NCSC differentiation, hPSCs maintained in E8 medium were singularized using Accutase and seeded at 9.1×10^4 cells/cm^2 onto Matrigel coated plates with E8+10 μM Y27632. […]
Cells were fixed fifteen minutes at room temperature with either 4% paraformaldehyde (PFA) or 100% ice-cold methanol depending on antibody staining conditions. Cells were rinsed three times in PBS without Ca^2+/Mg^2+ and stored at 4° C. in PBS until ready to stain. […]

For the molecule `Cc1c[nH]c(-c2cnc(NCCNc3ccc(C#N)cn3)nc2-c2ccc(Cl)cc2Cl)n1` [CHIR99021], the “induction of p75-NGFR expression” value is on record as “did not aid in inducing p75-NGFR expression”.

The record behind these values is patent US11643636B2, “Method of creating human pluripotent stem cell derived brain pericyte-like cells” (Wisconsin Alumni Research Foundation, priority 2018, dated 2023).
